From patent US8143408B2, “N-(8-heteroaryltetrahydronaphtalene-2yl) or N-(5-heteroarylchromane-3-yl) carboxamide derivatives for the treatment of pain” (AstraZeneca AB, priority 2007, dated 2012) come the findings set out here.

In the experiment the target is T1, Nav1.7 voltage-gated sodium channel (Homo sapiens, UniProt Q15858).
T1 construct: Gene(s) encoding the full-length protein of the voltage-gated sodium channel of interest are cloned and expressed; expressed in transfected cells
T1 sequence (Q15858 whole entry): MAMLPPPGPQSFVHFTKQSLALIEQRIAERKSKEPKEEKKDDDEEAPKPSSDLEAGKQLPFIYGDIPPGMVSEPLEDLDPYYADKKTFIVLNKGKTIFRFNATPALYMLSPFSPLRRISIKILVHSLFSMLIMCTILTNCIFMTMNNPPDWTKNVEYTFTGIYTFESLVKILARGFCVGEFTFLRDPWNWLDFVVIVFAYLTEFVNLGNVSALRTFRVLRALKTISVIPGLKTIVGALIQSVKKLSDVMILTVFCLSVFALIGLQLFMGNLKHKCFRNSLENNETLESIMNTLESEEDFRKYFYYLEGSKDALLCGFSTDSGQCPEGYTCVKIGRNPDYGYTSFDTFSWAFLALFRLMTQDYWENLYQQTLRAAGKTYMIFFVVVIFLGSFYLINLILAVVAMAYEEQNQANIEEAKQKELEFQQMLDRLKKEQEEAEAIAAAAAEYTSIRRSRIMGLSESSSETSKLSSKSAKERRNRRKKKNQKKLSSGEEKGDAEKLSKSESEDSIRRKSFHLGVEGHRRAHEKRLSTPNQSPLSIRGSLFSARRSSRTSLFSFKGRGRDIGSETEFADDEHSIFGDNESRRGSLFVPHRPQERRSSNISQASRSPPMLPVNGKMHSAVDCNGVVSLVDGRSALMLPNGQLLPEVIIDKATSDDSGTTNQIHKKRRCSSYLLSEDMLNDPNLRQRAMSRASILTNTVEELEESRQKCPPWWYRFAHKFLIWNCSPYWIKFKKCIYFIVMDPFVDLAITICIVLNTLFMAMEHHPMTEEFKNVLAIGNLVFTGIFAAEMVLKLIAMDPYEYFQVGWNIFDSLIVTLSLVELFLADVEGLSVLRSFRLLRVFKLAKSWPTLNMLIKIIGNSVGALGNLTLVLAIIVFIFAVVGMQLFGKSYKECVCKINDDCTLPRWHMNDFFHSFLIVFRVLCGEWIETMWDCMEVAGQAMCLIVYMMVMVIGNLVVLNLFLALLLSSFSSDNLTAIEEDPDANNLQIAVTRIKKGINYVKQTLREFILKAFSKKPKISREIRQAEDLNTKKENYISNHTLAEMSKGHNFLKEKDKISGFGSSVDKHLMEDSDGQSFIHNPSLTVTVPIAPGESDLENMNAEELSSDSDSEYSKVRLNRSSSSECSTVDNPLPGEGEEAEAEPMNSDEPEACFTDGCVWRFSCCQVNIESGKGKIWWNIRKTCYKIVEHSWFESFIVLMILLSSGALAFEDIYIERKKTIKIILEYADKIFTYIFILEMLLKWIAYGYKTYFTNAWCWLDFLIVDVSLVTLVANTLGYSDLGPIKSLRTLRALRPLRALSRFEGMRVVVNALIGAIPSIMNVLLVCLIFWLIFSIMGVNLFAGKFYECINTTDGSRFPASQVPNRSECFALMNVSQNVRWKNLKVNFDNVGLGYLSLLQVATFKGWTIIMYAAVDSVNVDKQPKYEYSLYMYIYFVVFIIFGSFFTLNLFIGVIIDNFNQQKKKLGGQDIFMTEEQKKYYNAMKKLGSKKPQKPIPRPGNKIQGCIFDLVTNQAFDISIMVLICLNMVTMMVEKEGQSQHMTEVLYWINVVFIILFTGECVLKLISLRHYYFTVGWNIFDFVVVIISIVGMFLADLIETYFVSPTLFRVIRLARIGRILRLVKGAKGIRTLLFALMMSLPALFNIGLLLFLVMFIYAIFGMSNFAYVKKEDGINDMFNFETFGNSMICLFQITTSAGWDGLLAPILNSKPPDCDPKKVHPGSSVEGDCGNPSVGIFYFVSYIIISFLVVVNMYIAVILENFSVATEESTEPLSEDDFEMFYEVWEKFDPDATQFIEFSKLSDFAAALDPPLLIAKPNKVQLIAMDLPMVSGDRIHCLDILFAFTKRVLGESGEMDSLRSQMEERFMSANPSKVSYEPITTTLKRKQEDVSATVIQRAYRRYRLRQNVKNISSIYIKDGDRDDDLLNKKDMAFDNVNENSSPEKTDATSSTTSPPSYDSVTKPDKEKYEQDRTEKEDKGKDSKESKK
Nature of the experiment: Whole-cell voltage clamp electrophysiology assay. The experiment is classed as cell-based. To be noted: cells stably expressing the voltage-gated sodium channel of interest. In outline: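 Cells expressing full-length channel, exposed to drug by integrated pipetting on automated patch-clamp platforms or by microperfusion in conventional whole-cell patch clamp. Channels activated by a voltage protocol depolarising from a defined holding potential; buffers per platform manufacturer.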
Broadly, the IC50 is the midpoint of a concentration-inhibition curve. Consider `COc1ncc(-c2cccc3c2C[C@H](NC(=O)c2ccc(S(=O)(=O)C4CCCC4)nc2)CO3)cn1` [Example 181, 6-(cyclopentylsulfonyl)-N-[(3S)-5-(2-methoxypyrimidin-5-yl)-3,4-dihydro-2H-chromen-3-yl]nicotinamide], for which half-maximal inhibition (IC50) required 501 nM.

`Cc1cncc(-c2cccc3c2C[C@H](NC(=O)c2ccc(OCCOCC(F)(F)F)nc2)CO3)n1` [Example 182, N-[(3S)-5-(6-methylpyrazin-2-yl)-3,4-dihydro-2H-chromen-3-yl]-6-[2-(2,2,2-trifluoroethoxy)ethoxy]nicotinamide] had an IC50 of 63.1 nM.

Turning to `Cc1ncc(-c2cccc3c2C[C@H](NC(=O)c2ccc(C(=O)NCCC(F)(F)F)nc2)CO3)cn1` [Example 183, N^5-[(3S)-5-(2-methylpyrimidin-5-yl)-3,4-dihydro-2H-chromen-3-yl]-N^2-(3,3,3-trifluoropropyl)pyridine-2,5-dicarboxamide], the IC50 is 316 nM.

`COc1ncc(-c2cccc3c2C[C@H](NC(=O)c2ccc(OCCOC(C)C)nc2)CO3)cn1` [Example 184, 6-(2-isopropoxyethoxy)-N-[(3S)-5-(2-methoxypyrimidin-5-yl)-3,4-dihydro-2H-chromen-3-yl]nicotinamide] showed an IC50 of 501 nM.

Consider `Cc1ncc(-c2cccc3c2C[C@H](NC(=O)c2ccc(OCCOC(C)C)nc2)CO3)cn1` [Example 185, 6-(2-isopropoxyethoxy)-N-[(3S)-5-(2-methylpyrimidin-5-yl)-3,4-dihydro-2H-chromen-3-yl]nicotinamide], for which it took 316 nM to reach half-maximal inhibition (IC50).

As for `Cc1ncc(-c2cccc3c2C[C@H](NC(=O)c2ccc(C(=O)NCCCOC(C)C)nc2)CO3)cn1` [Example 186, N^2-(3-isopropoxypropyl)-N^5-[(3S)-5-(2-methylpyrimidin-5-yl)-3,4-dihydro-2H-chromen-3-yl]pyridine-2,5-dicarboxamide], the IC50 is 2000 nM.

Compound `COc1ncc(-c2cccc3c2C[C@H](NC(=O)c2ccc(C(=O)NCCCOC(C)C)nc2)CO3)cn1` [Example 187, N^2-(3-isopropoxypropyl)-N^5-[(3S)-5-(2-methoxypyrimidin-5-yl)-3,4-dihydro-2H-chromen-3-yl]pyridine-2,5-dicarboxamide] showed an IC50 of 1580 nM.

In turn, `Cc1ncc(-c2cccc3c2C[C@H](NC(=O)c2ccc(C(=O)NCCCC(F)(F)F)nc2)CO3)cn1` [Example 188, N^5-[(3S)-5-(2-methylpyrimidin-5-yl)-3,4-dihydro-2H-chromen-3-yl]-N^2-(4,4,4-trifluorobutyl)pyridine-2,5-dicarboxamide] had an IC50 of 251 nM.

`Cc1ncc(-c2cccc3c2C[C@H](NC(=O)c2ccc(OCCOCC(F)(F)F)nc2)CO3)cn1` [Example 189, N-[(3S)-5-(2-methylpyrimidin-5-yl)-3,4-dihydro-2H-chromen-3-yl]-6-[2-(2,2,2-trifluoroethoxy)ethoxy]nicotinamide] had an IC50 of 79.4 nM.

For the compound `COc1ncc(-c2cccc3c2C[C@H](NC(=O)c2ccnc(OCCOCC(F)(F)F)c2)CC3)cn1` [Example 190, N-[(2R)-8-(2-methoxypyrimidin-5-yl)-1,2,3,4-tetrahydronaphthalen-2-yl]-2-[2-(2,2,2-trifluoroethoxy)ethoxy]isonicotinamide], half-maximal inhibition (IC50) was put at 7940 nM.

For the compound `COc1ncc(-c2cccc3c2C[C@H](NC(=O)c2ccc(C(=O)N(C)CC(F)(F)F)nc2)CO3)cn1` [Example 191, N^5-[(3S)-5-(2-methoxypyrimidin-5-yl)-3,4-dihydro-2H-chromen-3-yl]-N^2-methyl-N^2-(2,2,2-trifluoroethyl)pyridine-2,5-dicarboxamide], half-maximal inhibition (IC50) was put at 794 nM.

The compound `COc1ncc(-c2cccc3c2C[C@H](NC(=O)c2ccc(C(=O)N(C)CC(F)(F)F)nc2)CO3)cc1F` [Example 192, N^5-[(3S)-5-(5-fluoro-6-methoxypyridin-3-yl)-3,4-dihydro-2H-chromen-3-yl]-N^2-methyl-N^2-(2,2,2-trifluoroethyl)pyridine-2,5-dicarboxamide] showed an IC50 of 631 nM.
